Measurements published in article PMC5104457, “ATP-Competitive MLKL Binders Have No Functional Impact on Necroptosis” (PLoS ONE, 2016).

Assays:
[1] = molecular target: T1, full length MLKL (Homo sapiens, UniProt Q8NB16); experiment: KINOMEscan ATP-competitive probe displacement (competition binding) assay, MLKL; conditions: average of duplicates
T1 construct: purchased DiscoverX (KINOMEscan service); host or cells: HEK-293
T1 sequence (Q8NB16 1-471): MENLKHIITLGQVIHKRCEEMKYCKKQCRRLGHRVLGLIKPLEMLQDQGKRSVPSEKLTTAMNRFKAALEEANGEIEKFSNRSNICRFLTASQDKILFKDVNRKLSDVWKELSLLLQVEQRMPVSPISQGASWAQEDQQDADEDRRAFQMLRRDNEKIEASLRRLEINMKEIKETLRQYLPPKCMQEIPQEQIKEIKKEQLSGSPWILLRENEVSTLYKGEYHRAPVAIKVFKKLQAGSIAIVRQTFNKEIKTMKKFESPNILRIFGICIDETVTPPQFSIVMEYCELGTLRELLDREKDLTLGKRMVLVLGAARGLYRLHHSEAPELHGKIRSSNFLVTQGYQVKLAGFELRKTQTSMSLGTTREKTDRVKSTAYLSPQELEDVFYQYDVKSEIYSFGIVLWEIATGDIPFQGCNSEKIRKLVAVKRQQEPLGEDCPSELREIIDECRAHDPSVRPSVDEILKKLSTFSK
Experimental: Compound binding constants (KDs) were determined at DiscoverX using their KINOMEscan assay platform. […] Briefly, full length MLKL was expressed in HEK-293 cells as a fusion with an NFκB DNA binding domain and subsequently tagged with a qPCR detection amplicon via interaction with NFκB. […] Twenty microliters of binding reactions were carried out in 384-well polypropylene plates for 1 hour at room temperature. Beads were subsequently washed and resuspended in elution buffer for 30 minutes at room temperature with shaking. The concentration of MLKL in the eluates was measured by qPCR and compound binding constants were calculated using a standard dose-response curve.
(§1) A similar approach was used to measure binding affinities for RIPK1 and RIPK3 kinase domains.

[2] = molecular target: T2, RIPK1 kinase domain (Homo sapiens, UniProt Q13546); experiment: ATP-competitive probe displacement assay, RIPK1; format: binding; conditions: average of duplicates
T2 construct: purchased DiscoverX
T2 sequence (Q13546 17-289 limits assumed): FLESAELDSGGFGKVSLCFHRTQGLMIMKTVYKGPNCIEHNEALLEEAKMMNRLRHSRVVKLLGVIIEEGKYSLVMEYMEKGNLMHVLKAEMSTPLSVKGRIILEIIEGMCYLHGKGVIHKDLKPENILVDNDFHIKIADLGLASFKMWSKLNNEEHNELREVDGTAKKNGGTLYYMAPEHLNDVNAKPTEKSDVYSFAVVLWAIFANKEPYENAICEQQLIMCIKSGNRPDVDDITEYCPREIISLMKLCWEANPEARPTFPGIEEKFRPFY
Experimental: (§2) Compound binding constants (KDs) were determined at DiscoverX using their KINOMEscan assay platform. This competition binding assay was previously described in Karaman et al. (2008)[18]. Briefly, full length MLKL was expressed in HEK-293 cells as a fusion with an NFκB DNA binding domain and subsequently tagged with a qPCR detection amplicon via interaction with NFκB. […] Twenty microliters of binding reactions were carried out in 384-well polypropylene plates for 1 hour at room temperature. Beads were subsequently washed and resuspended in elution buffer for 30 minutes at room temperature with shaking. The concentration of MLKL in the eluates was measured by qPCR and compound binding constants were calculated using a standard dose-response curve.
as §1

[3] = molecular target: T3, RIPK3 kinase domain (Homo sapiens, UniProt Q9Y572); experiment: ATP-competitive probe displacement assay, RIPK3; format: binding; conditions: average of duplicates
T3 construct: purchased DiscoverX
Experimental: as §2, §1

[4] = molecular target: T4, pseudokinase His-MLKL-1 (Homo sapiens, UniProt Q8NB16); experiment: Second harmonic generation (SHG) conformational assay, MLKL pseudokinase domain; conditions: 10 μM compound; MLKL construct not given
T4 construct: sub-cloning residues 191 to 471 of the pseudokinase domain of human MLKL cDNA; made in house; host or cells: Escherichia coli BL21 (DE3)
T4 sequence (Q8NB16 191-471): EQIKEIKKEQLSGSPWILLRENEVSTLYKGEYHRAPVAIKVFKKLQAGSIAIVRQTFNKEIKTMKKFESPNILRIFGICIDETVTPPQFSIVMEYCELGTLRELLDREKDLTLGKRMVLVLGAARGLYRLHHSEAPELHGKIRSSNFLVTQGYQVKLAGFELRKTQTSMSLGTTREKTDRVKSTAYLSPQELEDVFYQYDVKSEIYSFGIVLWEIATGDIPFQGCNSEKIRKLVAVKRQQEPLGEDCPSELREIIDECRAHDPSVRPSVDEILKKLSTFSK
Text: MLKL-1 was constructed by sub-cloning residues 191 to 471 of the pseudokinase domain of human MLKL cDNA into a pET15b vector with a thrombin cleavable N-terminal six histidine fusion tag (His-MLKL-1). MLKL-2 had the same protein boundaries and fusion tag system as MLKL-1 but the dual mutations E366A and K367A were introduced using site directed mutagenesis and was expressed in the same vector (His-MLKL-2). These residues were identified as having high surface entropy and were mutated to alanine to improve crystal packing.
The labeling reaction was performed according to manufacturer’s instructions. […]
Experiments were performed on a Biodesy Delta System. […] The fundamental is directed to an arrangement of prisms integrated with the custom, glass-bottomed Biodesy Delta Read Plates, where it undergoes total internal reflection (TIR) to generate the evanescent field at the glass-lipid bilayer interface. […] The fundamental light is filtered out leaving only the SH light which is detected by a photomultiplier tube and processed with custom electronics. […] Ligand injection into the read plate is accomplished with an on-board 8-channel MEMS-based electronic pipetting system, enabling high speed and accuracy. […]
In addition, all experiments included a control buffer injection that was used to determine the significant threshold for SHG intensity change and was calculated in a similar manner. […]

T3 sequence (Q9Y572 21-287 limits assumed): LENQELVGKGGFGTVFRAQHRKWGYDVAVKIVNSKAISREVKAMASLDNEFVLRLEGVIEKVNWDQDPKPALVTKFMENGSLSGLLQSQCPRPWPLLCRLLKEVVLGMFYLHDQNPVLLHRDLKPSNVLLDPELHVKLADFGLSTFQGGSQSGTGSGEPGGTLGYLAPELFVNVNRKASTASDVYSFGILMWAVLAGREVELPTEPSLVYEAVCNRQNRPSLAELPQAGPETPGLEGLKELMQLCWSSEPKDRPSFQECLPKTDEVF

`Nc1nccnc1C(=O)O[C@H](C(=O)Nc1ccc(F)cc1)c1ccccc1` [cpd 5] was tested, and the Kd [1] was 7.6 µM, the Kd [2] was over 30 µM and the Kd [3] was over 30 µM. The “change in SHG intensity (in words)” value [4] was “no change from baseline”.
